≈ marks a conversion by molar mass, not a printed value.
Key:
physchem = format: physicochemical; details: 25 °C, water
From the text: In UK Patent Specification 2130204 we describe certain purine derivatives which are characterised by the presence of a hydrogen atom in the 6- position of the purine nucleus, and which can be readily converted in vivo by the action of enzymes of the molybdo-flavo-protein type (especially xanthine oxidase/dehydrogenase or aldehyde oxidase) into the corresponding 6-hydroxy purine derivatives having antiviral activity. […] This improved water-solubility enables 6-deoxyacyclovir to be used in a greater variety of aqueous pharmaceutical formulations which require some solubilisation of the drug.

[1] = biological target: T1, xanthine oxidase from bovine milk (Bos taurus, UniProt P80457); assay: oxidation by xanthine oxidase (enzyme studies); format: biochemical; details: compared with the 9-unsubstituted purine (2-aminopurine)
T1 construct: xanthine oxidase from bovine milk; from tissue; host or cells: bovine milk
From the text: The discovery that the 6-hydrogen purines of formula (IA) referred to above can be readily converted into their corresponding 6-hydroxy analogues was surprising since in previous studies with xanthine oxidase from bovine milk (H.Lettre et al (1967) Biochem.Pharmacol., 16, 1747-1755; T.A. Krenitsky et al (1972) Arch. Biophys., 150, 585-599), it was shown that 9- substitution obliterates or greatly diminishes the rate at which a variety of purines are oxidised.

T1 sequence (P80457 whole entry): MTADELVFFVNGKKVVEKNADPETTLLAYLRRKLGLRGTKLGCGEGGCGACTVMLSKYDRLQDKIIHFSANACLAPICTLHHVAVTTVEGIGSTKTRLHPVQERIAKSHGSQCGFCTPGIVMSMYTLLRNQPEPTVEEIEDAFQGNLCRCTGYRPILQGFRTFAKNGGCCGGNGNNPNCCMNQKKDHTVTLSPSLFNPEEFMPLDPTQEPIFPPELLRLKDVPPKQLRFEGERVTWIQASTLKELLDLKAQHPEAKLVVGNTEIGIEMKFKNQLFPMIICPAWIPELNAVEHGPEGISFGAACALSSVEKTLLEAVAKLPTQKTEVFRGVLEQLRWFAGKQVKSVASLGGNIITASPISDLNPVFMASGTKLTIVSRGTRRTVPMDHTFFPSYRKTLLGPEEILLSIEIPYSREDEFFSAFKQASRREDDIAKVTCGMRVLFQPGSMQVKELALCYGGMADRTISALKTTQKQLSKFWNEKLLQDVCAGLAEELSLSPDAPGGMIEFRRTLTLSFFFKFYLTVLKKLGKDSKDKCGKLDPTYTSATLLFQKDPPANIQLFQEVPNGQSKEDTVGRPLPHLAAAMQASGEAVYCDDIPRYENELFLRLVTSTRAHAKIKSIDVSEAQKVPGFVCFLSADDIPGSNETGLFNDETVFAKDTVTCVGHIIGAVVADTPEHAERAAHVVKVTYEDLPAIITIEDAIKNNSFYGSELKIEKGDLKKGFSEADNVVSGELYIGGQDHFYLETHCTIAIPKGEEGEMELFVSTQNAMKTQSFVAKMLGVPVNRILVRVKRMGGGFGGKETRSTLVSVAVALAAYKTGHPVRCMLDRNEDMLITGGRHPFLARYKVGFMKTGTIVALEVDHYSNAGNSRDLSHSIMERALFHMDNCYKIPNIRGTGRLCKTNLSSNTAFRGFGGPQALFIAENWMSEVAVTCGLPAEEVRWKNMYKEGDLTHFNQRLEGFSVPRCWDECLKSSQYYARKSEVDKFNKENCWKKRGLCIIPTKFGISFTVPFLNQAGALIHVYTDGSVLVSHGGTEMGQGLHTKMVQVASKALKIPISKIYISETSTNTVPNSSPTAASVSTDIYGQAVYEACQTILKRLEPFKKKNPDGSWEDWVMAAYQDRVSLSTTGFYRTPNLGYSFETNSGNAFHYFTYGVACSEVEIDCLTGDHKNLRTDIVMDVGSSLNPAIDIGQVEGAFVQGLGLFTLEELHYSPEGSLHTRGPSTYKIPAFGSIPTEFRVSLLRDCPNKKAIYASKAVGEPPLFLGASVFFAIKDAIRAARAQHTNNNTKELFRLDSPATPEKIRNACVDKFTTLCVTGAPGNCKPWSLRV

| solubility (physchem) | Structure (SMILES) | rate of oxidation by the enzyme [1] |
| --- | --- | --- |
| 50 mg/mL (≈ 239 mM) | Nc1ncc2ncn(COCCO)c2n1 [6-deoxyacyclovir, 2-amino-9-(2-hydroxyethoxymethyl)purine] | at a faster rate than the 9-unsubstituted purine |
| 1.23 mg/mL (≈ 5.46 mM) | Nc1nc2c(ncn2COCCO)c(=O)[nH]1 [acyclovir, 9-(2-hydroxyethoxymethyl)guanine] |  |

— EP0158513A2, “Antiviral compounds” (THE WELLCOME FOUNDATION LIMITED, priority 1984, dated 1985)
